Source: patent US9642819B2, “Low dosage serotonin 5-HT2A receptor agonist to suppress inflammation” (BOARD OF SUPERVISORS OF LOUISIANA STATE UNIVERSITY AND …, priority 2008, dated 2017)

What was measured:
[1] = tested on: Nitric Oxide Synthetase (NOS) activity; assay: NOS activity: nitrite levels in culture medium of RASM cells after TNF-α; format: cell-based, rat; conditions: 1 nM pretreatment for 24 hours, TNF-α 10 ng/ml 24 hours
Protocol: Nitric Oxide Synthetase (NOS) Activity. NOS activity was determined by detection of nitrite levels in the cell culture medium following (R)-DOI/TNF-α treatments utilizing the Nitrate Detection kit from Assay Designs (Ann Arbor, Mich.) following the manufacturers protocols. Absorbances were detected at 539 nm on a […] SpectraMax M2 plate reader.
A key participant in inflammatory processes is NOS activity (Guzik et al., 2003). NOS activity can regulate NF-kB activation (Ckless et al., 2007), and cytokine pathway-activated NF-kB can transcriptionally regulate iNOS gene expression (Guo et al., 2007). To examine the effects of 5-HT2A receptor activation on this component of inflammatory mechanisms, primary RASM cells were used to examine the ability of 1 nM (R)-DOI to block TNF-α mediated increases in nitrite levels.
As an indicator of NOS activity, nitrite levels were measured in the cell culture media after treatments and are shown in FIG. 6 as % control. […] Pretreatment with 1 nM (R)-DOI for 24 hours blocked TNF-α mediated increases in nitrite accumulation (DOI+T).

VCAM-1 gene expression = assay: TNF-α induced VCAM-1 gene expression in primary rat bronchoaveolar macrophage cells; format: cell-based
Protocol: (§1) Experiments were conducted to analyze for the effect of 5-HT2A receptor activation on proinflammatory marker expression in other cell types. Human neuroblastoma cells (SHSY5Y) and rat glioma cells (C6) can be obtained from the American Type Culture Collection (Manassas, Va.), but were provided Purdue University. The cells were grown in DMEM+10% FBS. DMEM was made and provided by the Cell and Molecular Core of the Mentoring in Cardiovascular Biology COBRE center at LSUHSC-NO. FBS was purchased from Invitrogen (Carlsbad, Calif.). Primary rat aortic endothelial cells were prepared fresh and provided by the Cell and Molecular Core of the Mentoring in Cardiovascular Biology COBRE center at LSUHSC-NO. Cells were tested at passages 3-4. Cells were grown in endothelial cell growth medium (Cell Applications, Inc.). Primary rat bronchoaveolar macrophage cells were obtained by lung lavage from rats and used at day 3 or 4 post plating in DMEM+10% FBS.
(§2) All treatments with 5-HT2A receptor agonists occurred 1 hour prior to the addition of TNF-alpha (10 ng/ml) or LPS (100 ng or 1 mg) depending on the experiment. All RNA isolations, cDNA synthesis, QPCR gene expression assays examining ICAM1, VCAM1, and IL6, and data analysis were performed as described above in Example 1, except the primers were different for the human cell experiment. […]

ICAM-1 gene expression [2] = assay: TNF-α induced ICAM-1 gene expression in rat C6 glioma cells; format: cell-based; conditions: 1 nM and 50 nM prior to TNF-α
Protocol: as §1, §2

ICAM-1 gene expression [3] = assay: TNF-α induced ICAM-1 gene expression in human neuroblastoma cells (SHSY5Y); format: cell-based
Protocol: as §1, §2

[4] = tested on: nuclear translocation of p65; assay: Nuclear translocation of NF-κB subunit p65 in RASM cells; format: cell-based, rat; conditions: 1 nM, 24 hours or one hour before or together with TNF-α 10 ng/ml
Protocol: Nuclear Translocation of p65. RASM cells were grown in M-199 medium+10% FBS until 50% confluent in 8 well chamber slides. Cells were treated with 1 nM (R)-DOI for various times as indicated, and TNF-α (10 ng/ml; tumor necrosis factor alpha) added. Thirty minutes after TNF-α treatment, cells were fixed and processed with rabbit anti p65 primary and Alexafluor 488-conjugated goat secondary antibodies as described in Zerfaoui et al. (2008) (Zerfaoui et al., 2008). Fluorescent signal was visualized on a Leica DMRA2 fluorescent microscope.
Both ICAM-1 and VCAM-1 gene transcription during inflammatory processes is regulated by the transcription factor NF-κB (Collins et al., 1995). During this process, NF-κB must be activated, and then translocated from the cytoplasm to the nucleus, where it promotes gene transcription. To investigate whether 5-HT2A receptor stimulated inhibition of NF-κB activation and translocation might be a possible mechanism for blockade of proinflammatory gene expression changes, a series of immunohistochemical experiments were conducted examining p65 translocation in RASM cells. TNF-α treatment for 30 minutes caused the expected dramatic shift in localization of the p65 subunit of NF-κB from the cytoplasm to the nucleus (FIG. 7A). […]

## COc1cc(C[C@@H](C)N)c(OC)cc1I [(R)-DOI, (R)-1-(2,5-dimethoxy-4-iodophenyl)-2-aminopropane]
[1]
  effect on TNF-α mediated increases in nitrite accumulation: blocked
VCAM-1 gene expression
  effect on VCAM-1 gene expression in rat bronchoaveolar macrophage cells: potently blocked
VCAM-1 gene expression; Rattus norvegicus, Macrophage, 1 hour prior to TNF-α 10 ng/ml, read-out: IC50 for VCAM-1 gene expression inhibition in rat bronchoaveolar macrophage cells
  IC50: ~0.02 nM
ICAM-1 gene expression [2]
  effect on ICAM-1 gene expression in rat glioma cells: blocked
ICAM-1 gene expression [3]
  effect on ICAM-1 gene expression in human neuroblastoma cells: blocked
ICAM-1 gene expression [3]; Homo sapiens, Neuroblastoma cell, 1 hour prior to TNF-α 10 ng/ml, read-out: IC50 for ICAM-1 gene expression inhibition in human neuroblastoma cells
  IC50: ~0.8 nM
[4]
  effect on TNF-α induced p65 nuclear translocation: completely blocked
